The test system of one experiment is horse with OA. Kind of experiment: Clinical lameness examination with flexion test in horses with osteoarthritis. Type of experiment: in vivo. From the text:
Lameness examination with flexion test and treatments have been performed by a veterinarian, and the results are shown in FIG. 2A. Lameness examination with flexion test and treatments have been performed by a veterinarian, and the results are shown in FIG. 3A.

For a further experiment, the system named is human chondrocytes. Kind of experiment: Quantitative real-time PCR of growth factors GDF-5 and FGF-18 in chondrocytes. The class given is cell-based. The following applies: for FGF18 expression / GDF5 expression: human chondrocytes, treatment of bupivacaine and sildenafil, FIGS. 1C-D. The protocol:
Cells (human chondrocytes) aimed for RNA isolation were washed with sterile PBS twice before addition of 1M DL-Dithiothreitol solution (Sigma Aldrich) in lysis buffer (Qiagen). The cells were visually inspected to ensure lysis before transfer to RNAse free, endtoxin-free sample tubes, snap frozen in liquid nitrogen, and stored at −80° C. for RNA isolation. Total RNA was extracted and purified with a commercially available kit (RNeasy mini kit, Qiagen) in accordance with the manufacturer's protocol. In brief, cells in lysis buffer were thawed and vortexed for 1 minute before 70% ethanol was added (1:1). The samples were mixed before addition to a spin column, and centrifuged. The column was then washed before genomic DNA was removed with DNase (Qiagen). The washing step was repeated with a stringent wash buffer and thereafter a mild buffer for washing membrane bound RNA. Total RNA was eluted with 50 μl RNase free water. RNA concentration was measured ho with a micro-volume spectrophotometer (ND-1000 spectrophotometer, NanoDrop Technologies, Wilmington, Del.) and RNA quality was evaluated using the Agilent 2100 Bioanalyzer system (Agilent Technologies Inc, Palo Alto, Calif.). cDNA was prepared from total RNA using High Capacity cDNA Reverse Transcription Kit (Applied Biosystems, Foster City, Calif., USA). Commercially available TaqMan Gene Expression Assays all from Applied Biosystems were used (Fibroblast growth factor 18 (FGF-18) and Growth and differentiation factor-5 (GDF-5)). Samples were analyzed in duplicates. The relative comparative CT method was used to analyze the real-time polymerase chain reaction (PCR) data.

Experiment [1] relates to Horse chondrocytes from OA horses. Kind of experiment: ATP-evoked intracellular Ca2+ signalling in horse chondrocytes (fluorescence-based assay, Flexstation 3). The class given is cell-based. The settings on record: for intracellular Ca2+ release (AUC and peak): ATP 10^-4 M, OA horse chondrocytes. The protocol:
Horse chondrocytes from OA horses were stimulated, in a fluorescence-based assay for detecting changes in intracellular Ca^2+ over time, with ATP (10^−4 M). The cells were cultivated in 5.5 mM glucose the whole cultivation period. Ca^2+ responses were measured after the cells were incubated for 24 h with metformin (1 mM), and bupivacaine (10^−12 M). Controls are untreated chondrocytes. The area under the Ca^2+ peak (AUC)(FIG. 1 A) was calculated for each Ca^2+ transient as well as the amplitude (peak) (FIG. 1 B) was expressed as the maximum increase. The cells were obtained from 4 experiments with quadruple wells in each. The level of significance was analyzed using a one-way ANOVA followed by Dunnett'multiple comparisons test. **P<0.01, **P<0.001. Similar data was obtained for human chondrocytes.
Articular cartilage samples were obtained, within 24 h of euthanasia, from the middle carpal joints of six horses (1-8-year-old). […] The horses were euthanized because of reasons unrelated to this study, and the Ethical Committee on Animal Experiments, Stockholm, Sweden, approved the study protocol (Dnr: N378/12).
Following aseptic preparation, cartilage of the dorsal aspect of the radial facet of the third carpal bone was incised with a scalpel, and full-thickness cartilage samples were collected with forceps. The tissue was placed in a sterile saline (0.9% NaCl) solution with gentamicin sulfate (50 mg/l) and amphotericin B (250 μg/ml). Cartilage samples were transported chilled (approx. 5° C.) to the laboratory. Isolation and expansion of chondrocytes were performed as previously described (Ley C, Svala E, Nilton A, Lindahl A, Eloranta M, Ekman S, Skiöldebrand E.Connect Tissue Res. (2011); 52 (4): 290-300). Cells were expanded in passage 1 and cells were seeded at 20,000 cells/cm2 in chondrogenic media to maintain the phenotype, DMEM-high glucose (DMEM-HG) (Thermo Fisher Scientific; Waltham, Mass., USA) supplemented with 14 μg/ml ascorbic acid (Sigma-Aldrich, St. Louis, Mo., USA), 10^−7 M dexamethasone (Sigma-Aldrich), 1 mg/ml human serum albumin (Equitech Bio, Kerville, Tex., USA), 1× insulin-transferrin-selenium (Gibco, Life Technologies, Carlsbad, Calif., USA), 5 μg/ml linoleic acid (Sigma-Aldrich), 1× penicillin-streptomycin (PEST) (Sigma-Aldrich), and 10 ng/ml human transforming growth factor (TGF) β-1 (R&D Systems, Abingdon, UK) for 5 days until confluence, in 96-well culture plates for Ca^2+ or in 6-well culture plates for Western blot analysis.
For restoration the cells were incubated with metformin and bupivacaine at day 4 of cultivation for 24 h. At day 5 the Ca^2+ measurements were performed, medium collected for Western blot analysis and cells were harvested and immediately frozen at −80° C. before analysis. […]

The next experiment concerns COMP neo-epitope. Kind of experiment: COMP neo-epitope concentration in synovial fluid and serum of horses with osteoarthritis. Type of experiment: in vivo, horse. The settings on record: for COMP neo-epitope concentration in serum: after treatment and during rehabilitation. From the text: Diagnosis of OA may be done with methods known in the art, for example clinical examination, radiography as is known in the art or the use of biomarkers, such as, for example, the COMP protein fragment described in WO2017216289, which is incorporated herein by reference. The presence of the COMP fragment in a bodily fluid, for example serum or synovial fluid, indicates OA, in particular cartilage degradation during OA. The COMP fragment may be detected by using an antibody that specifically binds to a peptide comprising the amino acid sequence N-terminal-SGPTH. It is referred to WO2017216289 for details.
Analysis of COMP epitope concentrations in synovial fluid and serum was carried out as in WO2017216289, and is shown in FIGS. 2B and C, respectively. The presence of the COMP epitope indicates ongoing inflammation and tissue damage in the joint.

Results on four compounds are retold here after patent publication US20210386744A1, “SILDENAFIL FOR USE IN THE TREATMENT OF OSTEOARTHRITIS” (MAZELOTTEN 353 AB under namnandring till ARTROA AB, priority 2018, published 2021).

“Also recorded” adds a separate entry of the source.

As for hyaluronic acid, the lameness result with horse with OA (horse number 1, both fetlock joints, hyaluronic acid intra-articularly and corticosteroids orally) was “lameness was increased”.

Turning to `CCCCN1CCCCC1C(=O)Nc1c(C)cccc1C` (centres unmarked) [bupivacaine], in the experiment with human chondrocytes, the FGF18 expression entry is listed as “upregulated” and the GDF5 expression result is recorded as “upregulated”. Moreover, in the experiment with human chondrocytes (low concentration of bupivacaine), the “growth factors of importance for generation of cartilage” value is “upregulated”. In experiment [1] (bupivacaine 10^-12 M together with metformin 1 mM, 24 h), the “intracellular Ca2+ release (AUC and peak)” value is “decreased; also recorded: reduced”.

In the case of `CCCc1nn(C)c2c(=O)[nH]c(-c3cc(S(=O)(=O)N4CCN(C)CC4)ccc3OCC)nc12` [sildenafil], in the experiment with human chondrocytes (addition of sildenafil in low concentration to bupivacaine), the “growth factors of importance for generation of cartilage” value is “increased the effect”. Further, the FGF18 expression result in the experiment on human chondrocytes is recorded as “upregulated”. In the experiment with human chondrocytes, the GDF5 expression entry is listed as “upregulated”. In addition, the clinical lameness grade entry in the experiment with horse with OA (horse number 2, carpal joints, 10 ml intra-articular injections) is listed as “clinical recovery”; with horse with OA (horse number 3, both carpal joints, intra-articular injection) it was “clinical recovery”. The “COMP neo-epitope concentration in serum” value in the experiment on COMP neo-epitope (horse number 2, FIG. 3C) is listed as “decrease of COMP levels to normal physiological levels”; with COMP neo-epitope (horse number 3, FIG. 4C) it was “decreased levels of COMP”. Besides, the “COMP neo-epitope concentration in synovial fluid” value in the experiment with COMP neo-epitope (horse number 2, FIG. 3B) is reported as “decrease of COMP levels to normal physiological levels”; with COMP neo-epitope (horse number 3, FIG. 4B) it was “decreased levels of COMP”. Also, in experiment [1] (sildenafil (1 μM, low concentration) added to bupivacaine/metformin, 24 h), the “intracellular Ca2+ release (AUC and peak)” value is recorded as “increased the effect”. Further, the “intracellular calcium signalling, in particular ATP-evoked” value in experiment [1] (low doses) was “capable of inhibiting”.

On to `C=C1/C(=C\C=C2/CCC[C@]3(C)[C@@H]([C@H](C)CCCC(C)(C)O)CC[C@@H]23)C[C@@H](O)C[C@@H]1O` [D3, 1α,25-dihydroxyvitamin D3], for which the “intracellular Ca2+ release” value in experiment [1] (D3 (calcitriol 100 nM) by itself, 24 h, FIG. 1E) was “did not have an effect”.
